target: T1, Leucyl-cystinyl aminopeptidase (Rattus norvegicus, UniProt P97629); assay: Inhibition Assay: The inventors have assumed that inhibition of nocturnal activity of placental leucine aminopeptidase (P-LAP), i.e. aminopeptidase that cleaves AVP, would maintain and/or increase an endogenous AVP level to enhance the antidiuretic effect, which would contribute to a decreased number of nocturnal voids, and have extensively studied compounds which inhibit P-LAP.
T1 sequence (P97629 whole entry): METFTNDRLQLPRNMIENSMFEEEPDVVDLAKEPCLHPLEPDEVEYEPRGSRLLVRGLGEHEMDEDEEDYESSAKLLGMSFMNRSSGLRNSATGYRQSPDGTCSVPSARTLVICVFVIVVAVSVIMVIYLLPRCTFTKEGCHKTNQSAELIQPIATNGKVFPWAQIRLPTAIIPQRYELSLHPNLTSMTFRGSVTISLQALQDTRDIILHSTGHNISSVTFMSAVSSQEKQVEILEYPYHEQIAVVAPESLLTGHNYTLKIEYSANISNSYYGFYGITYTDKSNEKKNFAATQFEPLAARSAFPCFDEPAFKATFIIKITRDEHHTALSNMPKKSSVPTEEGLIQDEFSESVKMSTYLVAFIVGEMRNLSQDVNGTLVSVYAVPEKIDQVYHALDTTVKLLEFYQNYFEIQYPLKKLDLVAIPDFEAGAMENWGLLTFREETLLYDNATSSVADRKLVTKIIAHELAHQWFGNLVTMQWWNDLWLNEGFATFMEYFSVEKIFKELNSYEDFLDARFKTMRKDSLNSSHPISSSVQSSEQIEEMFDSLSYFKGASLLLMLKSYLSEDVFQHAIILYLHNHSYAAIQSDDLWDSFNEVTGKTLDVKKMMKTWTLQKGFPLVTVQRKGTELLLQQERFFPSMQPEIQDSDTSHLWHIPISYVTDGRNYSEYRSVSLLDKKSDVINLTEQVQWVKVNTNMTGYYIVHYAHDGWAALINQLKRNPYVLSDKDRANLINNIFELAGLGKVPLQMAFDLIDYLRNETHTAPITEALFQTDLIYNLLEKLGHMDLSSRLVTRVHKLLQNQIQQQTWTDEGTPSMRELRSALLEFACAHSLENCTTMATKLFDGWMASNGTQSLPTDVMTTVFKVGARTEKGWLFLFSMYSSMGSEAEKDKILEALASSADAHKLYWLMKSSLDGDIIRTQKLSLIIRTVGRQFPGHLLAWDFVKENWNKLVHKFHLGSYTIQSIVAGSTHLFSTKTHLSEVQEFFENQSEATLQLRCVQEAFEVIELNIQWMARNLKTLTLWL

Which IC50 does the source give for `Cc1c(CCCC2CC2)ccnc1C[C@](O)(C(=O)O)[C@@H](N)CC(C)C` here?
The IC50 was 370 nM.

Which IC50 does the source give for `CCCC1CC1c1ccnc(C[C@](O)(C(=O)O)[C@@H](N)CC(C)C)c1` (stereo partly drawn) here?
Its IC50 is 19 nM.

How did the IC50 turn out when `CSC[C@H](N)[C@](O)(Cc1cc(CCCC2CC2)c(C)cn1)C(=O)O` was run?
Its IC50 is 1.7 nM.

With `Cc1cnc(C[C@](O)(C(=O)O)[C@@H](N)CCC2CC2)cc1CCCC1CC1` as the compound, how does the IC50 read?
Its IC50 is 0.58 nM.

How did the IC50 turn out when `CC(C)C[C@H](N)[C@](O)(Cc1nccc2c1CCC(CC1CC1)C2)C(=O)O` (stereo partly drawn) was run?
The IC50 was 15 nM.

With `COc1ccccc1CCc1ccnc(C[C@](O)(C(=O)O)[C@@H](N)CC(C)C)c1` as the compound, how does the IC50 read?
The IC50 was 12 nM.

With `C=CCSC[C@H](N)[C@](O)(Cc1cc(CCCC2CC2)ccn1)C(=O)O` as the compound, how does the IC50 read?
The IC50 was 20 nM.

`CCCCCc1ccnc(C[C@](O)(C(=O)O)[C@@H](N)CC(C)C)c1` was tested. Which IC50 did it give?
Its IC50 is 11 nM.
